Results from PMC10834624, “Estrogen receptor α interaction of zearalenone and its phase I metabolite α-zearalenol in combination with soy isoflavones in hERα-HeLa-9903 cells” (Mycotoxin Research, 2023).
Like-named read-outs stand apart in the source and are kept apart here.

Key:
[1] = test system: hERα-HeLa-9903 cells; assay: Sulforhodamine B (SRB) assay, cell protein amount; assay type: cell-based, human; conditions: 10 µM 4-OH-TAM, 24 h
Protocol: The SRB assay was conducted immediately after the CTB assay. Following the removal of the remaining CTB solution the cells in each well were fixed with 10 µL of a 50% trichloroacetic acid solution in distilled water. The 96-well plates were placed for 1 h into the refrigerator at 4 °C. Upon this cold incubation, the plates were carefully rinsed twice with tap water and then left to dry in a dark surrounding. Once the plates had dried, 50 µL of the SRB solution was pipetted into each well. The dye was left to stain the proteins for 1 h, again in a dark setting at room temperature. Afterwards the dye was rinsed off twice with tap water and twice with a 1% acetic acid solution. […] Once the plates had dried, the SRB solution bound to the protein components of the cells was dissolved in 100 µL of an alkaline Tris base solution (0.30 g tris(hydroxymethyl-) aminomethane solved in 250 mL distilled water) by shaking for 5 min in the plate reader (Victor V3 1240 Multilabel Counter from Perkin Elmer (Waltham/MA, USA) or the Cytation 3 Cell Imaging Multi-Mode Reader from Biotek® (Winooski/VT Vermont, USA)). Subsequently, the absorbance was measured at 570 nm and as for the CTB; the final results were referred to the solvent control (0.1% DMSO) in percentage.

[2] = test system: hERα-HeLa-9903 cells
[3] = biological target: T1, ERα (hERα-HeLa-9903 cells) (Homo sapiens, UniProt P03372); assay: cell-based; assay type: cell-based; conditions: for Luciferase induction: 1 nM E2=100%; for induced ERα-dependent luciferase expression in concentrations above: abstract; for concentration at which an increase in luciferase activity was initiated: discussion
T1 construct: host or cells: hERα-HeLa-9903 (modified human cervical HeLa cell line)
T1 sequence (P03372 whole entry): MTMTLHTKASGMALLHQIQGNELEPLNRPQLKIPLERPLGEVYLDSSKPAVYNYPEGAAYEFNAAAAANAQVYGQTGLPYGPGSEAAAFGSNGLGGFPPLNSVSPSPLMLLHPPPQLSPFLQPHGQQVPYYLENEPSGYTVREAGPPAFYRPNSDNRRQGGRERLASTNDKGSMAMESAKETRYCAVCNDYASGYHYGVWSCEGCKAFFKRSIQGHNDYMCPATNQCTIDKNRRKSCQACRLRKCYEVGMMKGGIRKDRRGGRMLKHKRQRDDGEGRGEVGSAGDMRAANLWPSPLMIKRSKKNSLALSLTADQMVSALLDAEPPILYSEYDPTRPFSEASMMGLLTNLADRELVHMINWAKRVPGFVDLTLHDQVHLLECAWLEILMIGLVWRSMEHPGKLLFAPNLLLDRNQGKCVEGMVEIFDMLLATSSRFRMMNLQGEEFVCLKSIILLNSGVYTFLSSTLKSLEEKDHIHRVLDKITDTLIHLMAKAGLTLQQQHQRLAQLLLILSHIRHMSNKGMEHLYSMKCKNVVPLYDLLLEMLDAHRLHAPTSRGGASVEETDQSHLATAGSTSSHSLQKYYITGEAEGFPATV
Protocol: The assays were performed in 96-well plates following the instructions of the manufacturer (Promega [2007]). Per well, 10,000 hERα-HeLa-9903 cells in assay medium were seeded and grown for 3 h. […] The substances were previously dissolved in DMSO in […] higher concentrations than the tested concentration, followed by dilution in the assay medium. In case of single substance testing and for the solvent control, DMSO was added to reach 0.1% in the final incubation solutions. Concentrations ranged from 0.001 to 100 nM in case of ZEN and its metabolites and 0.001 to 100 µM in case of ISF, with 1:10 dilution steps in between. […] All experiments were performed in technical triplicates and at least five independent biological replicates.
Following the 24-h incubation, the supernatants were discarded and 100 µL of a ONE-Glo™ EX luciferase incubation solution (1:1 dilution of OGL reagent and EMEM (5% CD-FBS)) was added and shaken for 5 min. Subsequently, 90 µL of the supernatant of each well was transferred to a new, white 96-well plate. The luminescence of the white plate was directly measured with a gain of 140 using the Victor V3 1240 Multilabel Counter from Perkin Elmer (Waltham/MA, USA) or the Cytation 3 Cell Imaging Multi-Mode Reader from Biotek® (Winooski/VT, USA).

[4] = test system: Ishikawa cells, expressing ERα and ERβ; conditions: 0.001–0.01 nM with GEN, DAI or EQ 0.001–0.1 µM; ref Grgic et al. [2022]; cited from earlier work
[5] = test system: firefly luciferase encoding gene (hERα-HeLa-9903 cells); assay: RT-qPCR of luciferase mRNA; assay type: cell-based, human; conditions: 10 nM, 24 h
Protocol: For the RT-qPCR, cells (hERα-HeLa-9903) were seeded in assay medium in 12-well plates at a density of 150,000 cells and allowed to grow for 24 h. Incubation solutions contained 0.1% DMSO and the test compounds and compound mixtures at various concentrations. After the same incubation time as the OGL-assay (24 h), cells were washed and subsequently the total RNA was extracted following the RNeasy Mini Kit protocol from Qiagen. The following reverse transcription was performed according to the QuantiTect-Reverse-Transcription manual (Qiagen [2009]) to transcribe 1 µg RNA to cDNA. Then, RT-qPCR was performed using primers for the firefly luciferase encoding gene with the following oligonucleotide sequences for reverse primer 5′-[…]-3′ and forward primer 5′-[…]-3′, as well as the endogenous control primers delta-aminolevulinate synthase (1HS_ALAS1_1_SG, QT00073122), actin beta (Hs_ACTB_1_SG, QT00095431) and glyceraldehyde-3-phosphate dehydrogenase (Hs_GAPDH_1_SG, QT00079247) with SYBR green as fluorescent probe. The amplification the following setting was applied: 95 °C for 2 min, followed by 40 repetition cycles of: 95 °C (15 s), 55 °C (15 s), 72 °C (60 s). […] Quantification was performed according to Livak and Schmittgen ([2001]) using the 2-ΔΔCt method resulting in the depiction of fold-changes in comparison to the solvent control.

[6] = single mycoestrogen 100 nM, 24 h

CC/C(=C(\c1ccc(O)cc1)c1ccc(OCCN(C)C)cc1)c1ccccc1 [4-OH-TAM, (Z)-4-hydroxytamoxifen]
protein content (SRB) [1]: tendency to decrease the protein content

O=c1c(-c2ccc(O)cc2)coc2cc(O)ccc12 [DAI, daidzein]
metabolic activity (CTB) vs solvent control [2]: no significant difference was observed
transcriptional activity compared to E2 after calculating the difference between 4-OH-TAM treated and untreated samples [3]: higher transcriptional activity

Oc1ccc([C@H]2COc3cc(O)ccc3C2)cc1 [EQ, S-equol]
metabolic activity (CTB) vs solvent control [2]: no significant difference was observed
EC50 ([3]; isoflavones, 24 h, read-out: EC50 (sigmoidal dose-response curve fit of luciferase induction)): 1600 ± 200 nM
Luciferase induction ([3]; single isoflavone 10 μM, 24 h): 334%

O=c1c(-c2ccc(O)cc2)coc2cc(O)cc(O)c12 [GEN, genistein]
metabolic activity (CTB) vs solvent control [2]: no significant difference was observed

C[C@H]1CCCC(=O)CCC/C=C/c2cc(O)cc(O)c2C(=O)O1 [ZEN, zearalenone]
estrogenic response in combination compared to single substances [4]: significantly enhanced the estrogenic response
luciferase mRNA levels [5]: induce luciferase mRNA levels significantly
EC50 [3]: 24.4 ± 0.4 nM
induced ERα-dependent luciferase expression in concentrations above [3]: above 1 nM
concentration at which an increase in luciferase activity was initiated [3]: 0.1 nM
Luciferase induction [3, 6]: 86%

C[C@H]1CCC[C@H](O)CCC/C=C/c2cc(O)cc(O)c2C(=O)O1 [α-ZEL, α-zearalenol]
estrogenic response in combination compared to single substances [4]: significantly enhanced the estrogenic response
potency to induce luciferase compared to ZEN ([3]; 0.01 to 10 nM): higher potency
induced ERα-dependent luciferase expression in concentrations above [3]: > 10 pM
concentration at which an increase in luciferase activity was initiated [3]: 0.01 nM
EC50 ([3]; mycoestrogens, 24 h, read-out: EC50 (sigmoidal dose-response curve fit of luciferase induction)): 0.057 ± 0.004 nM
Luciferase induction [3, 6]: 95%

C[C@H]1CCC[C@H](O)CCCCCc2cc(O)cc(O)c2C(=O)O1 [α-zearalanol]
estrogenic response in combination compared to single substances [4]: significantly enhanced the estrogenic response
